This note sets out measurements from US8828696B2, “Use of Penicillin G Procaine as a selective antimicrobial agent in the production of alcohol by fermentation” (Lallemand Specialites, Inc, priority 2008, dated 2014).

“And” between values parts separate entries of the source, which are not always exact repeats. Equal values may be shown once.

Experiment [1] deals with contaminating bacteria. Nature of the experiment: Alcohol production plant trial, fermentor drop data (50 m/g/y dry grind, corn). The settings on record: 0.5 ppm. In kind it is cell-based. Here is the method:
This trial was conducted at a 50 million gallon per year (m/g/y) dry grind fuel alcohol production facility utilizing corn as a fermentation substrate. Batch yeast propagation and fermentation process were utilized. Antimicrobials were added to the fermentor during the fill cycle at approximately 30% fill.
No other changes were made to the process or chemical additions that would influence the fermentation kinetics monitored during 3 sets of fermentor batches listed below. The fermentation data was accumulated at the end (drop) of the fermentation process for each of the fermentors. Fermentation kinetics was measured for three batch cycles including:
Set 1—“Pre Penicillin G Procaine trial”-10 fermentor batches using a level of 0.5 ppm Virginiamycin. See results in Table 2.
Set 2—“Penicillin G Procaine trial”-10 fermentor batches using a level of 0.5 ppm of Penicillin G Procaine. See results in Table 3.
Set 3—“Post Penicillin G Procaine trial”-10 fermentor batches using a level of 0.5 ppm of Virginiamycin. See results in Table 4.

The test system of experiment [2] is Lactobacillus fermentum. Nature of the experiment: Comparative efficacy analysis Virginiamycin vs. Penicillin G Procaine, growth in MRS broth, 24 well plate. In kind it is cell-based. The text has this: The most commonly found microorganism in fuel ethanol producing plants is the Lactobacillus fermentum bacterium and is considered as an “industry normal” bacterium. This example compares the use of a Bactenix® line of products, Penicillin G Procaine-antibiotic versus Virginiamycin-antibiotic to control “industry normal” Lactobacillus fermentum bacterium. This trial uses an alcohol water mixture to assure total dissolving of antibiotics. This assures that the correct concentrations of antibiotics are going into the test wells and thereby preventing under dosing during the trial. All bacteria tested were industry specific isolates that were obtained from actual corn mash samples from fermentation alcohol production plants. The trial was set up as follows: • 1. Dissolve 0.1 g of each of the antibiotics in 1 ml water and then add 5 ml of ethanol, vortex and bring up to 10 ml with sterile water to from a suspension. • 2. Dilute the previous suspension 1:10 with sterile water. This gives a one mg/ml concentration. • 3. Filter the suspension by running through a 0.2 μm syringe filter. • 4. Add four μl broth in a centrifuge then add antibiotics to MRS (DeMan, Rogosa and Sharpe) broth at the concentrations required for the test. • 5. Take four μl of a fresh 24-hour culture of the target organisms and add to the corresponding empty wells in a pre-labeled 24 well tissue culture plate. • 6. Pipette one ml of the appropriate antibiotic media to each well of the plate. • 7. Incubate at 33° C. for 24 hours. • 8. Read plates for bacterial growth and re-incubate the plates at 33° C. • 9. After 48 hours read and report the final results.

Where [3] appears, read: Set 1 'Pre Penicillin G Procaine trial', 10 Batch average.
Where [4] appears, read: Set 1 'Pre Penicillin G Procaine trial', drop data, single fermentor batch.
Setting [5] is: Set 3 'Post Penicillin G Procaine trial', 10 Batch average.
[6] abbreviates: Set 3 'Post Penicillin G Procaine trial', drop data, single fermentor batch.

In experiment [1] (setting [3]), Virginiamycin came in with an Acetic % of 0.04%, an EtOH v/v % of 15.48 v/v %, a Glucose % of 0.29% and a Lactic % of 0.64%. In experiment [1] (setting [4]), the Acetic % was 0.02% and 0.04% and 0.13% and 0.03%; the Glucose % is 0.36% and 0.27% and 0.26% and 0.31% and 0.29% and 0.3% and 0.16%; the Lactic % was 0.59% and 0.71% and 0.85% and 0.56% and 0.79% and 0.584% and 0.41%. In experiment [1] (setting [5]), this substance gave an Acetic % of 0.04%, an EtOH v/v % of 15.49 v/v %, a Glucose % of 0.30% and a Lactic % of 0.57%. Further, in experiment [1] (setting [6]), the Acetic % is 0.05% and 0.04% and 0.03%; the Glucose % was 0.26% and 0.35% and 0.29% and 0.32% and 0.30% and 0.33% and 0.25%. The “inhibition of growth of the 'industry normal' bacteria” value in experiment [2] (at 0.5 ppm, as per table 1) is on record as “did not seem to inhibit the growth”. In experiment [2] (dosage of above 1 ppm, compared with Penicillin G Procaine), the “effectiveness against Lactobacillus fermentum” value is “comparable effectiveness as Penicillin G Procaine”. In experiment [2] (industry standard L. fermentum isolate, MRS broth, 33° C., read at 24 and 48 hours), the “concentration from which effective against Lactobacillus fermentum” value is more than 0.5 ppm.
